From patent publication US20240034722A1, “PRETARGETING IMAGING AGENTS” (Eli Lilly and Company, priority 2020, published 2024)
Several values for one entry are separate records, joined by “and”; a condition that tells them apart may be missing. Identical values can stand only once. Entries after “also recorded” stand apart in the source; their conditions may differ.

Columns and labels:
[1] = Dynamic micro PET-CT imaging, tracer uptake in brain, muscle and bone; assay type: in vivo, CD-1 mice; settings: for Bone uptake throughout the scan period (defluorination) / Uptake throughout the periphery of the body (liver, kidneys, heart) / Brain uptake after steady clearance of tracer / Clearance from the brain / Crossing of the blood-brain-barrier / Peak brain uptake / Time of peak brain uptake post injection: CD-1 male mice; for Bone uptake throughout the scan period (defluorination): 60-min scan; for Uptake throughout the periphery of the body (liver, kidneys, heart): PET; for Brain uptake after steady clearance of tracer: at 59.5 min post injection; for Clearance from the brain: by 60 minutes post injection, relative to muscle; for Crossing of the blood-brain-barrier / Peak brain uptake / Time of peak brain uptake post injection: dynamic PET; for Peak brain uptake / Time of peak brain uptake post injection: i.v.; for Bone Mean % ID/g / Brain Mean % ID/g / Muscle Mean % ID/g: male CD-1 mice, iv
Description: (§1) A Siemens Inveon® Multimodality Scanner (Siemens, Germany) is used for micro PET-CT imaging. Male CD-1 (6-week-old, ˜30 g) mice are anesthetized with 3% isoflurane/97% oxygen and placed on the bed of the scanner. The mice are administered [^18F]N-(4-(1,2,4,5-tetrazin-3-yl)benzyl)-2-fluoronicotinamide via a bolus intravenous tail vein injection (˜350 ρCi in a total volume of 150 μL saline). A total of four dynamic PET scans are conducted, followed by a short high-resolution CT scan for anatomical registration. PET images are generated for each minute of the acquisition time. Uptake of the tracer in the brain, muscle, and bone are determined by visually drawing regions of interest (ROIs) based on the fused PET/CT images and the corresponding activity values are determined using the Inveon® Research Workplace software. All values are represented as % injected dose per gram (% ID/g).
as §1, with “g) mice were anesthetized with” for “g) mice are anesthetized with”, “are administered [^18F]N-(4-(1,2,4,5-tetrazin-3-yl)benzyl)-6-fluoropicolinamide via a” for “are administered [^18F]N-(4-(1,2,4,5-tetrazin-3-yl)benzyl)-2-fluoronicotinamide via a”, “vein injection (˜300 ρCi in” for “vein injection (˜350 ρCi in”
as §1, with “PET/CT” for “PET-CT”, “30-40” for “˜30”, “[^18F]N-(4-(1,2,4,5-tetrazin-3-yl)benzyl)-6-fluoronicotinamide” for “[^18F]N-(4-(1,2,4,5-tetrazin-3-yl)benzyl)-2-fluoronicotinamide”, “(˜300” for “(˜350”, “two” for “four”

[2] = Stability of the tetrazine moiety in ascorbate formulation; assay type: physicochemical
[3] = listed as [^18F]N-(4-(1,2,4,5-tetrazin-3-yl)benzyl)-2-fluoronicotinamide
[4] = listed as [^18F]N-(4-(1,2,4,5-tetrazin-3-yl)benzyl)-6-fluoropicolinamide

SMILES: O=C(NCc1ccc(-c2nncnn2)cc1)c1cccnc1[18F] [Example 2, [^18F]N-(4-(1,2,4,5-tetrazin-3-yl)benzyl)-2-fluoronicotinamide]
- Bone uptake throughout the scan period (defluorination) [1]: remained low
- Uptake throughout the periphery of the body (liver, kidneys, heart) [1]: observed
- Brain uptake after steady clearance of tracer [1]: 1.2 % ID/g
- Clearance from the brain [1]: baseline levels defined by uptake in the muscle
- Clearance from the brain [1, 3]: near background levels (muscle)
- Crossing of the blood-brain-barrier [1]: readily cross the blood-brain-barrier
- Peak brain uptake [1]: 3.3±0.4 % ID/g
- Time of peak brain uptake post injection [1]: approximately 2 min
- Peak brain uptake [1, 3]: 3.3±0.4 % ID/g and 3.3 % ID/g
- Time of peak brain uptake post injection [1, 3]: 4.5 min
- Crossing of the blood-brain-barrier [1, 3]: readily cross the blood-brain-barrier; also recorded: readily crosses the blood-brain-barrier
- Reduction of the tetrazine moiety by ascorbate formulation [2]: readily reduced

SMILES: O=C(NCc1ccc(-c2nncnn2)cc1)c1cccc(F)n1 [Example 3, N-(4-(1,2,4,5-tetrazin-3-yl)benzyl)-6-fluoropicolinamide]
- Reduction of the tetrazine moiety by ascorbate formulation [2]: readily reduced

SMILES: O=C(NCc1ccc(-c2nncnn2)cc1)c1ccc([18F])nc1 [Comparative Example 6, [^18]FN-(4-(1,2,4,5-tetrazin-3-yl)benzyl)-6-fluoronicotinamide]
- Bone uptake throughout the scan period (defluorination) [1]: remained low
- Uptake throughout the periphery of the body (liver, kidneys, heart) [1]: readily observed
- Brain uptake after steady clearance of tracer [1]: 1.1 % ID/g
- Crossing of the blood-brain-barrier [1]: crosses the blood-brain-barrier
- Peak brain uptake [1]: 2.6 % ID/g
- Time of peak brain uptake post injection [1]: 2.5 min
- Bone Mean % ID/g ([1]; Time 0.5 min): 0.00 % ID/g
- Brain Mean % ID/g ([1]; Time 0.5 min): 0.00 % ID/g
- Muscle Mean % ID/g ([1]; Time 0.5 min): 0.00 % ID/g
- Bone Mean % ID/g ([1]; Time 1.5 min): 0.09 % ID/g
- Brain Mean % ID/g ([1]; Time 1.5 min): 0.52 % ID/g
- Muscle Mean % ID/g ([1]; Time 1.5 min): 0.07 % ID/g
- Bone Mean % ID/g ([1]; Time 2.5 min): 0.83 % ID/g
- Brain Mean % ID/g ([1]; Time 2.5 min): 2.57 % ID/g
- Muscle Mean % ID/g ([1]; Time 2.5 min): 0.56 % ID/g
- Bone Mean % ID/g ([1]; Time 3.5 min): 0.95 % ID/g
- Brain Mean % ID/g ([1]; Time 3.5 min): 2.45 % ID/g
- Muscle Mean % ID/g ([1]; Time 3.5 min): 0.67 % ID/g
- Bone Mean % ID/g ([1]; Time 4.5 min): 0.85 % ID/g
- Brain Mean % ID/g ([1]; Time 4.5 min): 2.29 % ID/g
- Muscle Mean % ID/g ([1]; Time 4.5 min): 0.73 % ID/g
- Bone Mean % ID/g ([1]; Time 5.5 min): 0.86 % ID/g
- Brain Mean % ID/g ([1]; Time 5.5 min): 2.20 % ID/g
- Muscle Mean % ID/g ([1]; Time 5.5 min): 0.72 % ID/g
- Bone Mean % ID/g ([1]; Time 6.5 min): 0.90 % ID/g
- Brain Mean % ID/g ([1]; Time 6.5 min): 2.23 % ID/g
- Muscle Mean % ID/g ([1]; Time 6.5 min): 0.80 % ID/g
- Bone Mean % ID/g ([1]; Time 7.5 min): 0.90 % ID/g
- Brain Mean % ID/g ([1]; Time 7.5 min): 2.15 % ID/g
- Muscle Mean % ID/g ([1]; Time 7.5 min): 0.84 % ID/g
- Bone Mean % ID/g ([1]; Time 8.5 min): 0.90 % ID/g
- Brain Mean % ID/g ([1]; Time 8.5 min): 2.10 % ID/g
- Muscle Mean % ID/g ([1]; Time 8.5 min): 0.84 % ID/g
- Bone Mean % ID/g ([1]; Time 9.5 min): 0.81 % ID/g
- Brain Mean % ID/g ([1]; Time 9.5 min): 2.00 % ID/g
- Muscle Mean % ID/g ([1]; Time 9.5 min): 0.78 % ID/g
- Bone Mean % ID/g ([1]; Time 10.5 min): 0.90 % ID/g
- Brain Mean % ID/g ([1]; Time 10.5 min): 1.95 % ID/g
- Muscle Mean % ID/g ([1]; Time 10.5 min): 0.79 % ID/g
- Bone Mean % ID/g ([1]; Time 11.5 min): 0.92 % ID/g
- Brain Mean % ID/g ([1]; Time 11.5 min): 1.89 % ID/g
- Muscle Mean % ID/g ([1]; Time 11.5 min): 0.84 % ID/g
- Bone Mean % ID/g ([1]; Time 12.5 min): 0.94 % ID/g
- Brain Mean % ID/g ([1]; Time 12.5 min): 1.86 % ID/g
- Muscle Mean % ID/g ([1]; Time 12.5 min): 0.84 % ID/g
- Bone Mean % ID/g ([1]; Time 13.5 min): 0.97 % ID/g
- Brain Mean % ID/g ([1]; Time 13.5 min): 1.83 % ID/g
- Muscle Mean % ID/g ([1]; Time 13.5 min): 0.88 % ID/g
- Bone Mean % ID/g ([1]; Time 14.5 min): 0.98 % ID/g
- Brain Mean % ID/g ([1]; Time 14.5 min): 1.78 % ID/g
- Muscle Mean % ID/g ([1]; Time 14.5 min): 0.88 % ID/g
- Bone Mean % ID/g ([1]; Time 15.5 min): 0.98 % ID/g
- Brain Mean % ID/g ([1]; Time 15.5 min): 1.76 % ID/g
- Muscle Mean % ID/g ([1]; Time 15.5 min): 0.89 % ID/g
- Bone Mean % ID/g ([1]; Time 16.5 min): 0.83 % ID/g
- Brain Mean % ID/g ([1]; Time 16.5 min): 1.72 % ID/g
- Muscle Mean % ID/g ([1]; Time 16.5 min): 0.93 % ID/g
- Bone Mean % ID/g ([1]; Time 17.5 min): 1.00 % ID/g
- Brain Mean % ID/g ([1]; Time 17.5 min): 1.69 % ID/g
- Muscle Mean % ID/g ([1]; Time 17.5 min): 0.91 % ID/g
- Bone Mean % ID/g ([1]; Time 18.5 min): 0.97 % ID/g
- Brain Mean % ID/g ([1]; Time 18.5 min): 1.65 % ID/g
- Muscle Mean % ID/g ([1]; Time 18.5 min): 0.89 % ID/g
- Bone Mean % ID/g ([1]; Time 19.5 min): 0.93 % ID/g
- Brain Mean % ID/g ([1]; Time 19.5 min): 1.63 % ID/g
- Muscle Mean % ID/g ([1]; Time 19.5 min): 0.90 % ID/g
- Bone Mean % ID/g ([1]; Time 20.5 min): 1.01 % ID/g
- Brain Mean % ID/g ([1]; Time 20.5 min): 1.61 % ID/g
- Muscle Mean % ID/g ([1]; Time 20.5 min): 0.95 % ID/g
- Bone Mean % ID/g ([1]; Time 21.5 min): 0.91 % ID/g
- Brain Mean % ID/g ([1]; Time 21.5 min): 1.58 % ID/g
- Muscle Mean % ID/g ([1]; Time 21.5 min): 0.98 % ID/g
- Bone Mean % ID/g ([1]; Time 22.5 min): 1.02 % ID/g
- Brain Mean % ID/g ([1]; Time 22.5 min): 1.56 % ID/g
- Muscle Mean % ID/g ([1]; Time 22.5 min): 0.95 % ID/g
- Bone Mean % ID/g ([1]; Time 23.5 min): 1.04 % ID/g
- Brain Mean % ID/g ([1]; Time 23.5 min): 1.55 % ID/g
- Muscle Mean % ID/g ([1]; Time 23.5 min): 1.00 % ID/g
- Bone Mean % ID/g ([1]; Time 24.5 min): 1.11 % ID/g
- Brain Mean % ID/g ([1]; Time 24.5 min): 1.51 % ID/g
- Muscle Mean % ID/g ([1]; Time 24.5 min): 0.98 % ID/g
- Bone Mean % ID/g ([1]; Time 25.5 min): 0.93 % ID/g
- Brain Mean % ID/g ([1]; Time 25.5 min): 1.49 % ID/g
- Muscle Mean % ID/g ([1]; Time 25.5 min): 0.99 % ID/g
- Bone Mean % ID/g ([1]; Time 26.5 min): 0.86 % ID/g
- Brain Mean % ID/g ([1]; Time 26.5 min): 1.46 % ID/g
- Muscle Mean % ID/g ([1]; Time 26.5 min): 0.95 % ID/g
- Bone Mean % ID/g ([1]; Time 27.5 min): 0.94 % ID/g
- Brain Mean % ID/g ([1]; Time 27.5 min): 1.45 % ID/g
- Muscle Mean % ID/g ([1]; Time 27.5 min): 0.94 % ID/g
- Bone Mean % ID/g ([1]; Time 28.5 min): 1.00 % ID/g
- Brain Mean % ID/g ([1]; Time 28.5 min): 1.42 % ID/g
- Muscle Mean % ID/g ([1]; Time 28.5 min): 1.00 % ID/g
- Bone Mean % ID/g ([1]; Time 29.5 min): 1.05 % ID/g
- Brain Mean % ID/g ([1]; Time 29.5 min): 1.40 % ID/g
- Muscle Mean % ID/g ([1]; Time 29.5 min): 0.97 % ID/g
- Bone Mean % ID/g ([1]; Time 30.5 min): 0.95 % ID/g
- Brain Mean % ID/g ([1]; Time 30.5 min): 1.38 % ID/g
- Muscle Mean % ID/g ([1]; Time 30.5 min): 0.99 % ID/g
- Bone Mean % ID/g ([1]; Time 31.5 min): 1.04 % ID/g
- Brain Mean % ID/g ([1]; Time 31.5 min): 1.38 % ID/g
- Muscle Mean % ID/g ([1]; Time 31.5 min): 0.95 % ID/g
- Bone Mean % ID/g ([1]; Time 32.5 min): 1.04 % ID/g
- Brain Mean % ID/g ([1]; Time 32.5 min): 1.36 % ID/g
- Muscle Mean % ID/g ([1]; Time 32.5 min): 0.97 % ID/g

SMILES: O=C(NCc1ccc(-c2nncnn2)cc1)c1cccc([18F])n1 [Example 4, [^18F]N-(4-(1,2,4,5-tetrazin-3-yl)benzyl)-6-fluoropicolinamide]
- Bone uptake throughout the scan period (defluorination) [1]: remained low
- Uptake throughout the periphery of the body (liver, kidneys, heart) [1]: observed
- Brain uptake after steady clearance of tracer [1]: 1.1 % ID/g
- Clearance from the brain [1]: baseline levels defined by uptake in the muscle
- Clearance from the brain [1, 4]: near background levels (muscle)
- Crossing of the blood-brain-barrier [1]: readily cross the blood-brain-barrier
- Peak brain uptake [1]: 4.3±0.3 % ID/g
- Time of peak brain uptake post injection [1]: approximately 2 min
- Peak brain uptake [1, 4]: 4.3±0.3 % ID/g and 4.3 % ID/g
- Time of peak brain uptake post injection [1, 4]: 2.5 min
- Crossing of the blood-brain-barrier [1, 4]: readily cross the blood-brain-barrier; also recorded: readily crosses the blood-brain-barrier

SMILES: O=C(NCc1ccc(-c2nncnn2)cc1)c1cccnc1F [Example 1, N-(4-(1,2,4,5-tetrazin-3-yl)benzyl)-2-fluoronicotinamide]
- Reduction of the tetrazine moiety by ascorbate formulation [2]: readily reduced
